Test results: ChEMBL document CHEMBL5441456, “ASAP - SARS-CoV-2 nsp3 macrodomain dose response” (2024)
Values joined by “and” are separate entries in the source; they are usually repeats but may differ in a detail not shown here. Equal values may be shown once.

Molecular target: Replicase polyprotein 1ab (Severe acute respiratory syndrome coronavirus 2, UniProt P0DTD1)
Assay: Functional biochemical assay to identify treatments for viral infectious disease that targets SARS-COV-2 nsp3 macrodomain, whereby the mechanism of action displaces an ADP-Ribose modified peptide from the binding site. Utilizing a time-resolved fluorescence method to measure binding by reading the emitted fluorescence intensity in two wavelengths.

| Compound | IC50 |
| --- | --- |
| CC(C)[C@@H](Nc1ccnc2nn[nH]c12)c1ccc2c(c1)S(=O)(=O)CCC2 | > 99.5 µM |
| CC(C)[C@H](Nc1ncnc2c1CCN2)c1ccc2c(c1)S(=O)(=O)CCC2 | 52.1 µM |
| O=C(O)[C@@H]1CC2(CCCCC2)CN1c1ncnc2[nH]ccc12 | > 99.5 µM |
| Cc1ncc(C(=O)Nc2ncnc3[nH]c(C)c(C)c23)cn1 | > 99.5 µM |
| CC(C)[C@@H](Nc1ncnc2[nH]c(C(=O)NCC3(CO)CCC3)cc12)c1ccc2c(c1)OCCO2 | 1.29 µM and 2.35 µM |
| CC(C)[C@@H](Nc1ncnc2[nH]c(C(=O)O)cc12)c1ccc2c(c1)OCCO2 | 11.7 µM and 11.5 µM |
| COc1ccc([C@H](CC(=O)O)NC(=O)c2ccc(NC(=O)NC3CC3)cc2)cc1 | 54.1 µM and 51.2 µM and 38.1 µM |
| O=C(Nc1cccc2c(C(=O)N[C@@H](c3ccccc3)C(F)F)c[nH]c12)NC1CC1 | > 99.5 µM |
| O=C(c1cnc[nH]1)N1CCC(c2ccn3ncc(C(=O)N4CCCCC4)c3c2)CC1 | > 99.5 µM |
| Cc1nc(C(=O)N2CCC(c3ccn4ncc(C(=O)N5CCCCC5)c4c3)CC2)c(=O)[nH]c1C | > 99.5 µM |
| COc1nc(NC(=O)c2cc3c(N[C@@H](c4ccc5c(c4)OCCO5)C(C)C)ncnc3[nH]2)n[nH]1 | 47.2 µM |
| CC(C)[C@@H](Nc1ncnc2c1CCO2)c1ccc2c(c1)S(=O)(=O)CCC2 | 62.9 µM |
| COc1ccc([C@@H](Nc2ncnc3[nH]ccc23)C(C)C)cc1OC | > 99.5 µM |
| CC(C)Cc1ccc2c(NC(=O)c3ccc(NC(=O)NC4CC4)cc3)c(C(=O)O)sc2n1 | > 99.5 µM |
| Cc1csc(NC(=O)CSC[C@@H](NC(=O)c2ncnc3[nH]ccc23)C(=O)O)n1 | > 99.5 µM |
| C[C@@H]1Oc2ccc(Nc3ncnc4[nH]ccc34)cc2NC1=O | > 99.5 µM |
| CC(C)[C@H](NC(=O)c1ncnc2[nH]ccc12)c1ccc2c(c1)S(=O)(=O)CCC2 | > 99.5 µM |
| O=C(c1cccc(Br)c1)N1CCC(c2ccn3ncc(C(=O)N4CCCCC4)c3c2)CC1 | > 124 µM |
| O=C(O)C[C@@H](NC(=O)c1nccc2[nH]ncc12)c1ccc(Br)cc1 | 24.7 µM and 24.2 µM |
| O=C(O)C[C@@H](NC(=O)Cc1c[nH]c2ncccc12)c1ccc(Br)cc1 | > 99.5 µM |
| c1cc(-c2nnc(Sc3ncnc4[nH]ccc34)[nH]2)ccn1 | > 124 µM |
| CC(C)[C@@H](Nc1ncnc2[nH]cc(C(=O)N(C)C)c12)c1ccc2c(c1)OCCO2 | 1.95 µM and 1.97 µM |
| O=C(O)[C@@H]1[C@@H](c2ccccc2)CCN1c1ncnc2[nH]ccc12 | > 99.5 µM |
| Cn1ncc(-c2cc3c(N[C@@H](c4ccc5c(c4)OCCO5)C(C)(C)C)ncnc3[nH]2)c1C#N | 0.309 µM and 0.332 µM |

| Compound | IC50 |
| --- | --- |
| O=C(N[C@H]1CCC[C@H]1C(=O)O)c1cnn2ccc(C3CCN(C(=O)c4ccccc4)CC3)cc12 | 35.8 µM |
| COc1ccc([C@@](C)(CC(=O)O)NC(=O)c2ncnc3[nH]ccc23)cc1 | 19.3 µM and 18.2 µM |
| CNC(=O)c1cccc([C@@H](CC(=O)O)NC(=O)c2ncnc3[nH]ccc23)c1 | 18.7 µM and 17.4 µM |
| CC(C)[C@@H](Nc1ncnc2[nH]c(C(=O)NCC3CN(C)C3)cc12)c1ccc2c(c1)OCCO2 | 0.866 µM and 0.79 µM |
| O=C(O)[C@@H](CC1CC1)Nc1ncnc2[nH]ccc12 | > 99.5 µM |
| CC(C)[C@@H](Nc1ncnc2[nH]c(-c3cc4c(cc3F)NC(=O)CC4)cc12)c1ccc2c(c1)S(=O)(=O)CCC2 | 0.297 µM and 0.189 µM and 0.345 µM |
| CC(C)[C@@H](Nc1ncnc2[nH]c(-c3cnoc3)cc12)c1ccc2c(c1)OCCO2 | 29.9 µM and > 99.5 µM |
| O=C(O)C[C@@H](NC(=O)c1ccc(NC(=O)NC2CC2)cc1)C1CCOCC1 | > 99.5 µM |
| CC(C)[C@@H](Nc1ncnc2[nH]c(-c3cnn(C)c3)cc12)c1ccc2c(c1)OCCO2 | 0.538 µM and 0.616 µM and 0.618 µM |
| CC(C)[C@@H](Nc1ncnc2[nH]c(-c3cnn(CCC(N)=O)c3)cc12)c1ccc2c(c1)OCCO2 | 0.274 µM and 0.319 µM |
| O=C(O)[C@@H]1C[C@H](F)CN1c1ncnc2[nH]ccc12 | > 99.5 µM |
| CC(C)[C@@H](NC(=O)c1c[nH]c2c(NC(=O)NC3CC3)cccc12)C(F)F | > 99.5 µM |
| Cc1[nH]c2ncnc(NC(=O)c3ccc(Cl)cn3)c2c1C | > 99.5 µM |
| Cc1cc(-c2cc3c(N[C@@H](c4ccc5c(c4)OCCO5)C(C)C)ncnc3[nH]2)n(C)n1 | 1.07 µM and 1.02 µM |
| CC(C)[C@@H](CCN(C)C(=O)c1cc2nccnc2cc1F)Nc1ncnc2[nH]ccc12 | > 99.5 µM |
| CC(C)[C@@H](Nc1ncnc2[nH]c(-c3cncc(C(=O)N(C)C)c3)cc12)c1ccc2c(c1)OCCO2 | 0.746 µM and 0.819 µM |
| CC(C)[C@@H](Nc1ncnc2[nH]c(C(=O)NC34CC(C#N)(C3)C4)cc12)c1ccc2c(c1)OCCO2 | 1.36 µM and 1.93 µM |
| CC(C)[C@@H](Nc1ncnc2[nH]c(-c3ccc(CC#N)cc3)cc12)c1ccc2c(c1)OCCO2 | 26.4 µM and 28.9 µM |
| CC(C)[C@@H](Nc1cc(-c2c[nH]cn2)ncn1)c1ccc2c(c1)OCCO2 | > 99.5 µM |
| CC(C)[C@H](Nc1cc(N2CCNCC2)ncn1)c1ccc2c(c1)S(=O)(=O)CCC2 | > 99.5 µM |
| COc1ccc(C(=O)Nc2ccc(C(=O)N[C@@H]3c4ccccc4C[C@@H]3C(=O)O)cc2)cc1S(=O)(=O)NCCN1CCCC1 | > 99.5 µM |
| CCNC(=O)c1cc2c(N[C@@H](c3cccc(-c4ccc(OC)nc4)c3)C(C)C)ncnc2[nH]1 | 20.9 µM and 17.7 µM |
| Cc1ccoc1-c1cc2c(N[C@@H](c3ccc4c(c3)OCCO4)C(C)C)ncnc2[nH]1 | 43.9 µM and 39.7 µM |
| O=C(N[C@@H](C(=O)O)c1ccc(Br)cc1)c1ncnc2[nH]ccc12 | 52.1 µM and 62.9 µM |

| Compound | IC50 |
| --- | --- |
| CC(C)[C@H](Nc1nc(N)ncc1Cl)c1ccc2c(c1)S(=O)(=O)CCC2 | > 99.5 µM |
| CC(C)[C@@H](Cc1ccc(F)cc1)NC(=O)c1ncnc2[nH]ccc12 | > 99.5 µM |
| NC(=O)[C@@H](NC(=O)c1ncnc2[nH]ccc12)c1ccc(Br)cc1 | > 99.5 µM |
| CCNC(=O)c1cc2c(N[C@@H](c3ccc4c(c3)OCCO4)C(C)C)ncnc2[nH]1 | 0.28 µM and 0.305 µM and 0.287 µM and 0.614 µM |
| Cc1cc(-c2cc3c(N[C@@H](c4ccc5c(c4)OCCO5)C(C)C)ncnc3[nH]2)nn1C | 2.79 µM and 1.62 µM |
| CC(C)[C@@H](Nc1ncnc2[nH]c(-c3cnn(C4CC4)c3)cc12)c1ccc2c(c1)OCCO2 | 0.998 µM and 1.23 µM and 1.12 µM |
| CC(C)[C@@H](Nc1ncnc2[nH]c(C(=O)NCCC(F)F)cc12)c1ccc2c(c1)OCCO2 | 0.837 µM and 1.34 µM |
| COc1ccc([C@@H](Nc2ncnc3[nH]ccc23)C(C)C)cc1 | 6.36 µM and 8.21 µM |
| Cc1[nH]c2ncnc(NC(=O)c3ccc(S(C)(=O)=O)nc3)c2c1C | > 99.5 µM |
| CC(C)[C@@H](c1ccc2c(c1)OCCO2)N(C)c1ncnc2[nH]c(Br)cc12 | > 99.5 µM |
| Cc1[nH]c2ncnc(NC(=O)C3(c4ccc(F)cc4)CCC3)c2c1C | 19.5 µM and 21.8 µM |
| CCC[C@H](Nc1ncnc2[nH]ccc12)C(=O)O | > 99.5 µM |
| CC(C)[C@@H](Nc1ncnc2[nH]c(-c3ccn(C(C)C)n3)cc12)c1ccc2c(c1)OCCO2 | 2.27 µM and 2.62 µM |
| CNCc1cc(-c2cc3c(N[C@@H](c4ccc5c(c4)S(=O)(=O)NCC5)C(C)C)ncnc3[nH]2)co1 | 65 nM and 70 nM (2×) and 108 nM |
| CC(C)[C@@H](Nc1ncnc2[nH]ccc12)c1ccc2c(c1)S(=O)(=O)CCO2 | 0.181 µM |
| O=C(O)[C@@H]1C[C@@H](O)CN1c1ncnc2[nH]ccc12 | > 99.5 µM |
| CC(C)[C@@H](Nc1ncnc2[nH]c(C(=O)NC3CN(C)C3)cc12)c1ccc2c(c1)S(=O)(=O)CCC2 | 0.189 µM |
| CC(C)[C@H](Nc1ncnc2c1OCCO2)c1ccc2c(c1)S(=O)(=O)CCC2 | 38.4 µM |
| CC(C)[C@@H](Nc1ncnc2[nH]ccc12)c1ccc2c(c1)S(=O)(=O)CO2 | 3.62 µM and 2.35 µM |
| O=C(O)C[C@@H](NC(=O)c1ncnc2[nH]ccc12)c1ccc(NCc2ccno2)cc1 | 11.3 µM and 13.1 µM |
| O=C(O)C[C@@H](NC(=O)c1c[nH]c2ncncc12)c1ccc(NCC2=NO[C@@H]3COC[C@H]23)cc1 | > 99.5 µM |
| CC(C)[C@@H](Nc1ncnc2[nH]ccc12)c1cnn(C)c1 | 3.93 µM and 3.17 µM |
| CNc1nc(C(=O)N[C@@H](Cc2nn[nH]n2)c2ccc(OC)cc2)c2ccnc-2[nH]1 | 45.7 µM and 44.7 µM |
| NS(=O)(=O)c1ccccc1CNc1ncnc2[nH]ccc12 | > 124 µM |

| Compound | IC50 |
| --- | --- |
| c1nc(N[C@@H](c2ccc3c(c2)OCCO3)C2CCCC2)c2cc[nH]c2n1 | 2.23 µM and 2.25 µM |
| CCn1ccc(-c2cc3c(N[C@@H](c4ccc5c(c4)OCCO5)C(C)C)ncnc3[nH]2)n1 | 1.32 µM and 1.53 µM |
| CC(C)[C@@H](Nc1ncnc2[nH]ccc12)C(=O)O | 15.4 µM and 16.8 µM and 20.9 µM and 20.6 µM |
| CC(C)[C@@H](Nc1ncnc2[nH]c(-c3cnn(C(C)C)n3)cc12)c1ccc2c(c1)OCCO2 | 1.7 µM and 2.13 µM |
| CC(=O)Nc1ccc([C@@H](CC(=O)O)NC(=O)c2ncnc3[nH]ccc23)cc1 | 14.5 µM and 14.6 µM |
| O=C(Nc1ccc(C(=O)Nc2c(C(=O)O)[nH]c3ccccc23)cc1)NC1CC1 | > 99.5 µM |
| CO[C@@H]1CCCN(C(=O)c2cnn3ccc(C4CCN(C(=O)c5ccccc5)CC4)cc23)C1 | > 99.5 µM |
| CC(C)[C@@H](Nc1ncnc2[nH]c(-c3cnn(CC4CC4)c3)cc12)c1ccc2c(c1)OCCO2 | 0.804 µM and 0.853 µM |
| C[C@@H](Nc1ncnc2[nH]ccc12)[C@@H]1CCS(=O)(=O)C1 | > 99.5 µM |
| CC(C)C[C@@H](Nc1ncnc2[nH]ccc12)C(=O)O | > 99.5 µM |
| Cc1n[nH]nc1C(=O)N1CCC(c2ccn3ncc(C(=O)N4CCCCC4)c3c2)CC1 | > 99.5 µM |
| O=C(O)C[C@@H](NC(=O)c1ncnc2[nH]c3cc(F)ccc3c12)c1ccc(Br)cc1 | 0.992 µM and 1.01 µM |
| O[C@H]1CCCC[C@@H]1Nc1ncnc2[nH]ccc12 | 55.4 µM and 64.7 µM |
| CC(C)[C@H](Nc1cccc2nc[nH]c(=O)c12)c1ccc2c(c1)S(=O)(=O)CCC2 | > 99.5 µM |
| CC(C)[C@@H](Nc1ncnc2[nH]c([C@@H]3CCOC3)cc12)c1ccc2c(c1)OCCO2 | 1.86 µM and 1.95 µM |
| Cc1ncc(-c2cc3c(N[C@@H](c4ccc5c(c4)OCCO5)C(C)C)ncnc3[nH]2)o1 | 1.16 µM and 1.35 µM and 1.4 µM |
| CC(C)[C@@H](Nc1ncnc2[nH]c(-c3cnn(C)c3)cc12)c1ccc2c(c1)S(=O)(=O)CCO2 | 0.043 µM and 0.051 µM |
| Cc1[nH]c2ncnc(NC(=O)c3ncn(-c4ccccc4)n3)c2c1C | > 99.5 µM |
| COc1ccc([C@@H]2CCN(c3ncnc4[nH]ccc34)C2)cc1 | > 99.5 µM |
| COc1cnn(C)c1-c1cc2c(N[C@@H](c3ccc4c(c3)OCCO4)C(C)C)ncnc2[nH]1 | 50.9 µM and 55.9 µM |
| CC(C)[C@H](Nc1cc(N2CCOCC2)ncn1)c1ccc2c(c1)S(=O)(=O)CCC2 | > 99.5 µM |
| CC(C)[C@@H](Nc1ncnc2c1OCCO2)c1ccc2c(c1)S(=O)(=O)CCC2 | > 99.5 µM |
| CC(C)[C@@H](Nc1cc(C(N)=O)ccn1)c1ccc2c(c1)S(=O)(=O)CCC2 | > 99.5 µM |
| Cc1nc(N)c(Cl)c(N[C@H](c2ccc3c(c2)S(=O)(=O)CCC3)C(C)C)n1 | > 99.5 µM |
